Laboratory results published in ChEMBL document CHEMBL3525902, “In vitro metabolism of oxymetazoline: evidence for bioactivation to a reactive metabolite” (Drug Metab Dispos, 2011).

Tests used:
Liver [1] = test: Drug level in NADPH supplemented rat liver S9 fraction treated with 50 uM oxymetazoline assessed as compound formation after 1 hr by LC-MS/MS method; type: ADME, subcellular; details: s9, 1 h
[2] = Drug level in NADPH supplemented rabbit liver microsomes fraction treated with 50 uM oxymetazoline assessed as compound formation after 1 hr by LC-MS/MS method; type: ADME, Oryctolagus cuniculus
Liver microsome [3] = test: Drug level in NADPH supplemented human liver microsomes fraction treated with 50 uM oxymetazoline assessed as compound formation after 1 hr by LC-MS/MS method; type: ADME
Cytochrome P450 2C19 [4] = target: T1, Cytochrome P450 2C19 (Homo sapiens, UniProt P33261); test: Activity of human recombinant CYP2C19 assessed as compound formation from 50 uM oxymetazoline in presence of NADPH by LC-MS/MS method; type: ADME; details: recombinant enzyme
[5] = Drug level in NADPH supplemented rabbit liver S9 fraction treated with 50 uM oxymetazoline assessed as compound formation after 1 hr by LC-MS/MS method; type: ADME, subcellular, Oryctolagus cuniculus; details: s9, 1 h
[6] = Drug level in NADPH supplemented rabbit liver S9 fraction treated with 50 uM oxymetazoline assessed as compound-N-acetyl cysteine conjugate formation in presence of N-acetyl cysteine by LC-MS/MS method; type: ADME, subcellular, Oryctolagus cuniculus
Liver microsome [7] = test: Drug level in NADPH supplemented rat liver microsomes fraction treated with 50 uM oxymetazoline assessed as compound formation after 1 hr by LC-MS/MS method; type: ADME
[8] = Retention time of the compound at 50 uM by LC-MS/MS method; type: physicochemical
Liver [9] = test: Drug level in NADPH supplemented human liver S9 fraction treated with 50 uM oxymetazoline assessed as compound formation after 1 hr by LC-MS/MS method; type: ADME, subcellular; details: s9, 1 h
[10] = Drug level in NADPH supplemented human liver S9 fraction treated with 50 uM oxymetazoline assessed as compound-glutathione conjugate formation in presence of glutathione by LC-MS/MS method; type: ADME, subcellular
Cytochrome P450 2C19 [11] = target: T1, Cytochrome P450 2C19; test: Activity of human recombinant CYP2C19 assessed as compound formation from 50 uM oxymetazoline in presence of NADPH and glutathione by LC-MS/MS method; type: ADME; details: recombinant enzyme
[12] = Drug level in NADPH supplemented rabbit liver S9 fraction treated with 50 uM oxymetazoline assessed as compound-glutathione conjugate formation in presence of glutathione by LC-MS/MS method; type: ADME, subcellular, Oryctolagus cuniculus
[13] = Drug level in NADPH supplemented rat liver S9 fraction treated with 50 uM oxymetazoline assessed as compound-glutathione conjugate formation in presence of glutathione by LC-MS/MS method; type: ADME, subcellular

T1 sequence (P33261 whole entry): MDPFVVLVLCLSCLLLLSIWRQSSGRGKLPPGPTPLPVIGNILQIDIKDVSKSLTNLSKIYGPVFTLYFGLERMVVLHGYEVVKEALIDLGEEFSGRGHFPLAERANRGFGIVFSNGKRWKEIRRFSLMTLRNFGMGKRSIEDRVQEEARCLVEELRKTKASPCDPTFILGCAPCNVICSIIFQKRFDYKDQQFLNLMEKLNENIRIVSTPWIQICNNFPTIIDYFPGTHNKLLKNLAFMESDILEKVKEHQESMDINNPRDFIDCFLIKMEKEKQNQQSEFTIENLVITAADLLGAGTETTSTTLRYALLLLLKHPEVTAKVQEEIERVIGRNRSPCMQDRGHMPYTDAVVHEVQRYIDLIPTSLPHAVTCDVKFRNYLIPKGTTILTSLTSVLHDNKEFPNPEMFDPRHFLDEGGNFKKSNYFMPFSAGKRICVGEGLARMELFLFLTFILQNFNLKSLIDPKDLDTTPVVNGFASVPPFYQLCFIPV

Row | Structure (SMILES) | Drug metabolism (Liver [1]) | Drug metabolism [2] | Drug metabolism (Liver microsome [3]) | Drug metabolism (Cytochrome P450 2C19 [4]) | Drug metabolism [5] | Drug metabolism (Liver microsome [7]) | Retention_time [8] | Drug metabolism (Liver [9]) | Drug metabolism [10] | Drug metabolism (Cytochrome P450 2C19 [11]) | Drug metabolism [12] | Drug metabolism [13] | Drug metabolism [6]
1 | Cc1cc(C(C)(C)C)c(O)c(C)c1Cc1ncc[nH]1 | metabolite_detected | metabolite_detected | metabolite_detected | metabolite_detected | metabolite_detected | metabolite_detected | 12.36 min | metabolite_detected |  |  |  |  | metabolite_detected
2 | Cc1c(O)c(C(C)(C)C)cc(CSC[C@H](NC(=O)CC[C@H](N)C(=O)O)C(=O)NCC(=O)O)c1Cc1ncc[nH]1 | metabolite_detected |  |  |  | metabolite_detected |  | 4.65 min | metabolite_detected | metabolite_detected | metabolite_detected | metabolite_detected | metabolite_detected | 
3 | CC(=O)N[C@@H](CSCc1cc(C(C)(C)C)c(O)c(C)c1CC1=NCCN1)C(=O)O |  |  |  |  |  |  |  |  |  |  |  |  | metabolite_detected
4 | Cc1c(O)c(C(C)(C)C)cc(CSC[C@H](N)C(=O)O)c1Cc1ncc[nH]1 |  |  |  |  | metabolite_detected |  | 3.48 min |  |  |  |  |  | 
5 | Cc1c(O)c(C(C)(C)CO)cc(CSC[C@H](NC(=O)CC[C@H](N)C(=O)O)C(=O)NCC(=O)O)c1Cc1ncc[nH]1 |  |  |  |  | metabolite_detected |  | 6.34 min |  |  |  |  |  | 
6 | Cc1c(O)c(C(C)(C)CO)cc(CSC[C@H](NC(=O)CC[C@H](N)C(=O)O)C(=O)NCC(=O)O)c1CC1=NCCN1 |  |  |  |  | metabolite_detected |  | 3.86 min |  |  |  |  |  | 
7 | Cc1cc(C(C)(C)CO)c(O)c(C)c1CC1=NCCN1 | metabolite_detected | metabolite_detected | metabolite_detected | metabolite_detected | metabolite_detected | metabolite_detected | 4.95 min | metabolite_detected | metabolite_detected |  | metabolite_detected | metabolite_detected | 
8 | Cc1c(O)c(C(C)(C)C)cc(CSC[C@H](N)C(=O)O)c1CC1=NCCN1 |  |  |  |  | metabolite_detected |  | 3.17 min | metabolite_detected |  |  |  |  | 

Continued, in another order:

Row | Drug metabolism (Liver [1]) | Drug metabolism [2] | Drug metabolism (Liver microsome [3]) | Drug metabolism (Cytochrome P450 2C19 [4]) | Drug metabolism [5] | Drug metabolism (Liver microsome [7]) | Retention_time [8] | Drug metabolism (Liver [9]) | Drug metabolism [10] | Drug metabolism (Cytochrome P450 2C19 [11]) | Drug metabolism [12] | Drug metabolism [13] | Structure (SMILES) | Drug metabolism [6]
9 | metabolite_detected | metabolite_detected | metabolite_detected | metabolite_detected | metabolite_detected | metabolite_detected | 5.64 min | metabolite_detected | metabolite_detected |  | metabolite_detected | metabolite_detected | Cc1cc(C(C)(C)CO)c(O)c(C)c1Cc1ncc[nH]1 | 
10 | metabolite_detected |  |  |  | metabolite_detected |  | 4.22 min | metabolite_detected | metabolite_detected | metabolite_detected | metabolite_detected | metabolite_detected | Cc1c(O)c(C(C)(C)C)cc(CSC[C@H](NC(=O)CC[C@H](N)C(=O)O)C(=O)NCC(=O)O)c1CC1=NCCN1 | 
